This passage reports IC50 results from PMC6177136, “Hybrid topoisomerase I and HDAC inhibitors as dual action anticancer agents” (PLoS ONE, 2018).

This test relates to RAMOS. Put plainly: Cytotoxicity assay (MTT, 72 h) RAMOS. The format is cell-based. As to conditions: Homo sapiens, read-out: IC50 ± SD RAMOS.

`CC[C@@]1(O)C(=O)OCc2c1cc1n(c2=O)Cc2c-1nc1ccc(O)cc1c2C=NOCCCCCC(=O)NO` [Compound 3d, 6-(10-hydroxycamptothecin-7-ylmethyleneaminooxy)-hexanoic acid hydroxyamide]: the IC50 – broadly, the concentration that inhibits the measured activity by half – came out at 990 ± 100 nM.
